Source: patent US20220227785A1, “NOVEL PHENYL AND PYRIDYL UREAS ACTIVE AGAINST THE HEPATITIS B VIRUS (HBV)” (AICURIS GMBH & CO. KG, priority 2019, published 2022)

Tested on: HBV in HepAD38 cells
Details: Hepatitis B virus, HePAD38, 144 h, read-out: Cell activity

Row | SMILES | EC50 [nM]
1 | CN(C(=O)c1[nH]nc2c1CN(C(=O)Nc1ccc(F)c(Cl)c1)CC2)C1(c2ccc(C(=O)O)cc2)CC1 [Example 13, 4-(1-{N-methyl-5-[(3-chloro-4-fluorophenyl)carbamoyl]-2H,4H,5H,6H,7H-pyrazolo[4,3-c]pyridine-3-amido}cyclopropyl)benzoic acid] | < 100000
2 | CN1C(=O)c2c3c(nn2CCC12CC2)CCN(C(=O)Nc1ccc(F)c(Cl)c1)C3 [Example 11, N-(3-chloro-4-fluorophenyl)-13′-methyl-14′-oxo-4′,8′,9′,13′-tetraazaspiro[cyclopropane-1,12′-tricyclo[7.5.0.0^2,^7]tetradecane]-1′,7′-diene-4′-carboxamide] | < 1000
3 | CC1Cn2cnc(C(=O)N(C)C3(c4cccc(C(=O)O)c4)CC3)c2CN1C(=O)Nc1ccc(F)c(Cl)c1 (centres unmarked) [Example 14, 3-(1-{N-methyl7-[(3-chloro-4-fluorophenyl)carbamoyl]-6-methyl-5H,6H,7H,8H-imidazo[1,5-a]pyrazine-1-amido}cyclopropyl)benzoic acid] | < 1000
4 | O=C(O)c1cccc(C2(NC(=O)c3cnn4c3CN(C(=O)Nc3ccc(F)c(Cl)c3)CC4)CC2)c1 [Example 18, 3-(1-{5-[(3-chloro-4-fluorophenyl)carbamoyl]-4H,5H,6H,7H-pyrazolo[1,5-a]pyrazine-3-amido}cyclopropyl)benzoic acid] | 1000 to 10000
5 | O=C(O)c1ccc(C2(NC(=O)c3cnn4c3CN(C(=O)Nc3ccc(F)c(Cl)c3)CC4)CC2)nc1 [Example 6, 6-(1-{5-[(3-chloro-4-fluorophenyl)carbamoyl]-4H,5H,6H,7H-pyrazolo[1,5-a]pyrazine-3-amido}cyclopropyl)pyridine-3-carboxylic acid] | < 1000
6 | CCN1C(=O)c2c3c(nn2CCC12CC2)CCN(C(=O)Nc1ccc(F)c(Cl)c1)C3 [Example 28, N-(3-chloro-4-fluorophenyl)-13′-ethyl-14′-oxo-4′,8′,9′,13′-tetraazaspiro[cyclopropane-1,12′-tricyclo[7.5.0.0^2,^7]tetradecane]-1′,7′-diene-4′-carboxamide] | < 1000
7 | COCC1(N(C)C(=O)c2noc3c2CN(C(=O)Nc2ccc(F)c(Cl)c2)CC3)CC1 [Example 3, N5-(3-chloro-4-fluorophenyl)-N3-[1-(methoxymethyl)cyclopropyl]-N3-methyl-4H,5H,6H,7H-[1,2]oxazolo[4,5-c]pyridine-3,5-dicarboxamide] | < 1000
8 | CN(C(=O)c1[nH]nc2c1CN(C(=O)Nc1ccc(F)c(Cl)c1)CC2)C1(c2ncc(C(=O)O)cn2)CC1 [Example 12, 2-(1-{N-methyl-5-[(3-chloro-4-fluorophenyl)carbamoyl]-2H,4H,5H,6H,7H-pyrazolo[4,3-c]pyridine-3-amido}cyclopropyl)pyrimidine-5-carboxylic acid] | 1000 to 10000
9 | CN(C(=O)c1cnn2c1CN(C(=O)Nc1ccc(F)c(Cl)c1)CC2)C1(c2cc(C(=O)O)on2)CC1 [Example 27, 3-(1-{N-methyl-5-[(3-chloro-4-fluorophenyl)carbamoyl]-4H,5H,6H,7H-pyrazolo[1,5-a]pyrazine-3-amido}cyclopropyl)-1,2-oxazole-5-carboxylic acid #] | < 1000
10 | O=C(O)c1cnc(C2(NC(=O)c3cnn4c3CN(C(=O)Nc3ccc(F)c(Cl)c3)CC4)CC2)nc1 [Example 5, 2-(1-{5-[(3-chloro-4-fluorophenyl)carbamoyl]-4H,5H,6H,7H-pyrazolo[1,5-a]pyrazine-3-amido}cyclopropyl)pyrimidine-5-carboxylic acid] | < 1000
11 | CN(C(=O)c1cnn2c1CN(C(=O)Nc1ccc(F)c(Cl)c1)CC2)C1(Cc2ccc(C(=O)O)cc2)CC1 [Example 16, 4-[(1-{N-methyl-5-[(3-chloro-4-fluorophenyl)carbamoyl]-4H,5H,6H,7H-pyrazolo[1,5-a]pyrazine-3-amido}cyclopropyl)methyl]benzoic acid] | < 1000
12 | O=C(O)c1ccc(C2(NC(=O)c3cnn4c3CN(C(=O)Nc3ccc(F)c(Cl)c3)CC4)CC2)cc1 [Example 17, 4-(1-{5-[(3-chloro-4-fluorophenyl)carbamoyl]-4H,5H,6H,7H-pyrazolo[1,5-a]pyrazine-3-amido}cyclopropyl)benzoic acid] | < 100000
13 | CN(C(=O)c1cnn2c1CN(C(=O)Nc1ccc(F)c(Cl)c1)CC2)C1(c2ccccc2C(=O)O)CC1 [Example 29, 2-(1-{N-methyl-5-[(3-chloro-4-fluorophenyl)carbamoyl]-4H,5H,6H,7H-pyrazolo[1,5-a]pyrazine-3-amido}cyclopropyl)benzoic acid] | < 1000
14 | CN(C(=O)c1cnn2c1CN(C(=O)Nc1ccc(F)c(Cl)c1)CC2)C1(c2cccc(C(=O)O)c2)CC1 [Example 1, 3-(1-{N-methyl-5-[(3-chloro-4-fluorophenyl)carbamoyl]-4H,5H,6H,7H-pyrazolo[1,5-a]pyrazine-3-amido}cyclopropyl)benzoic acid] | < 1000
15 | CC1Cn2ncc(C(=O)N(C)C3(c4ccc(C(=O)O)cc4)CC3)c2CN1C(=O)Nc1ccc(F)c(Cl)c1 (centres unmarked) [Example 9, 4-(1-{N-methyl-5-[(3-chloro-4-fluorophenyl)carbamoyl]-6-methyl-4H,5H,6H,7H-pyrazolo[1,5-a]pyrazine-3-amido}cyclopropyl)benzoic acid] | < 1000
16 | CN1C(=O)c2c3c(nn2CC12CC2)CCN(C(=O)Nc1ccc(F)c(F)c1)C3 [Example 10, N-(3,4-difluorophenyl)-4′-methyl-3′-oxo-4′,7′,8′,12′-tetraazaspiro[cyclopropane-1,5′-tricyclo[7.4.0.0^2,^7]tridecane]-1′,8′-diene-12′-carboxamide] | < 1000
17 | C[C@@H](NC(=O)c1noc2c1CN(C(=O)Nc1ccc(F)c(Cl)c1)CC2)C(F)(F)F [Example 8, N5-(3-chloro-4-fluorophenyl)-N3-[(2R)-1,1,1-trifluoropropan-2-yl]-4H,5H,6H,7H-[1,2]oxazolo[4,5-c]pyridine-3,5-dicarboxamide] | < 1000
18 | CN1C(=O)c2c3c(nn2CC12CC2)CCN(C(=O)Nc1ccc(F)c(Cl)c1)C3 [Example 4, N-(3-chloro-4-fluorophenyl)-4′-methyl-3′-oxo-4′,7′,8′,12′-tetraazaspiro[cyclopropane-1,5′-tricyclo[7.4.0.0^2,7]tridecane]-1′,8′-diene-12′-carboxamide] | < 1000
19 | CN(C(=O)c1cnn2c1CN(C(=O)Nc1ccc(F)c(Cl)c1)CC2)C1(c2ccc(C(=O)O)cc2)CC1 [Example 2, 4-(1-{N-methyl-5-[(3-chloro-4-fluorophenyl)carbamoyl]-4H,5H,6H,7H-pyrazolo[1,5-a]pyrazine-3-amido}cyclopropyl)benzoic acid] | < 1000
20 | CN(C(=O)c1cnn2c1CN(C(=O)Nc1ccc(F)c(Cl)c1)CC2)C1(c2nccc(C(=O)O)n2)CC1 [Example 15, 2-(1-{N-methyl-5-[(3-chloro-4-fluorophenyl)carbamoyl]-4H,5H,6H,7H-pyrazolo[1,5-a]pyrazine-3-amido}cyclopropyl)pyrimidine-4-carboxylic acid] | 1000 to 10000
